# Results taken from patent US20190284168A1, “PYRAZOLE DERIVATIES AS SGC STIMULATORS” (IRONWOOD PHARMACEUTICALS, INC., priority 2014, published 2019).
# Target: T1, soluble guanylate cyclase (sGC) (Homo sapiens, UniProt Q02108+Q02153)
# T1 construct: endogenously expressing soluble guanylate cyclase (sGC); endogenous in cells; host or cells: HEK293
# T1 sequence (Q02153 1-619): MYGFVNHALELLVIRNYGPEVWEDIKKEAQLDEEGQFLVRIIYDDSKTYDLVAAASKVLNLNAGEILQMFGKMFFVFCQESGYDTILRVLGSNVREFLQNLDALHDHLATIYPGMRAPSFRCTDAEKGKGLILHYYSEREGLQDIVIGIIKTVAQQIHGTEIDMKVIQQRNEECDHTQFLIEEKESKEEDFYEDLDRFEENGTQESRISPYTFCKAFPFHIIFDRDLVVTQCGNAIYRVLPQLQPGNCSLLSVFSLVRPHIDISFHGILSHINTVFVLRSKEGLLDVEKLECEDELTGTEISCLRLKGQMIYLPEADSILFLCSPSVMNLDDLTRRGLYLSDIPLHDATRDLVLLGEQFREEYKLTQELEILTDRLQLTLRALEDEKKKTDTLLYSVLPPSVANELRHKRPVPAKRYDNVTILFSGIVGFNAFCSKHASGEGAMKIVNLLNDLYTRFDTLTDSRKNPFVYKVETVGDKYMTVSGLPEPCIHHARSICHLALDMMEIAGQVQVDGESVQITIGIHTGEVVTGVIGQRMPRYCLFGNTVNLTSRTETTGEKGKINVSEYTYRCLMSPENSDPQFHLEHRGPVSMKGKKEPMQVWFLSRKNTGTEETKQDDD
# T1 sequence (Q02108 1-690): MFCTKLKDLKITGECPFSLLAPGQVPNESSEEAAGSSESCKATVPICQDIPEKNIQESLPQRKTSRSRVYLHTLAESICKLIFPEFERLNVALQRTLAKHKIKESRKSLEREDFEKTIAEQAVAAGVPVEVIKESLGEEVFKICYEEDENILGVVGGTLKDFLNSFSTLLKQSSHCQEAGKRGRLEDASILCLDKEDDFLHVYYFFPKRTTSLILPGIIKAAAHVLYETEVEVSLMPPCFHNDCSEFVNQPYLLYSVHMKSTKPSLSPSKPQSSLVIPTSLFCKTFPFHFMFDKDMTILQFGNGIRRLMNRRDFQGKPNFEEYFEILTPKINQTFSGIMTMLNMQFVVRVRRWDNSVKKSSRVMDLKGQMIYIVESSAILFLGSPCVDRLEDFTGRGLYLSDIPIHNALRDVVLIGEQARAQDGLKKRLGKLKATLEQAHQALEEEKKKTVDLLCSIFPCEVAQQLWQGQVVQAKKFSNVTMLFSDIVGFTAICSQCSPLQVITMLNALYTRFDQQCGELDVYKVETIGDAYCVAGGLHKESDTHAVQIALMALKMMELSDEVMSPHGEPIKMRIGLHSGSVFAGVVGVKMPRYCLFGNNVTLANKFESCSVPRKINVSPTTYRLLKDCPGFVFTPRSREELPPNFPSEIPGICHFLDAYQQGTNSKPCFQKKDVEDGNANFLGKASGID
# Experiment: sGC-HEK-cGMP assay with LC/MS detection
# Format: cell-based
# Conditions: HEK293 whole cells, LC/MS detection of cGMP, 10 μM DETA-NONOate; 50% of high control response (30 μM Compound Y); read-out: Absolute EC50 (nM)- binned (~)
row,SMILES,EC50
1,CCOC(=O)C(C)(C)C(=O)Nc1ccnc(-c2cc(-c3ccon3)n(Cc3ccccc3F)n2)n1 [Compound 66],> 1000 nM
2,"CSCC[C@H](CO)Nc1nc(-c2cc(-c3ccon3)n(Cc3ccccc3F)n2)ncc1F [Compound 150, (R)-2-((5-fluoro-2-(1-(2-fluorobenzyl)-5-(isoxazol-3-yl)-1H-pyrazol-3-yl)pyrimidin-4-yl)amino)-4-(methylthio)butan-1-ol]",< 100 nM
3,"Nc1ccc(CNc2nc(-c3cc(-c4ccon4)n(Cc4ccccc4F)n3)ncc2F)cc1O [Compound 159, 2-amino-5-(((5-fluoro-2-(1-(2-fluorobenzyl)-5-(isoxazol-3-yl)-1H-pyrazol-3-yl)pyrimidin-4-yl)amino)methyl)phenol]",> 30000 nM
4,CS(=O)(=O)c1cc(-c2ncc(F)c(O)n2)nn1Cc1ccccc1F [Compound 196],> 30000 nM
5,"O=C(Nc1nc(-c2cc(-c3ccon3)n(Cc3ccccc3F)n2)ncc1F)OCCN1CCOCC1 [Compound 158, 2-morpholinoethyl (5-fluoro-2-(1-(2-fluorobenzyl)-5-(isoxazol-3-yl)-1H-pyrazol-3-yl)pyrimidin-4-yl)carbamate]",> 1000 nM
6,NCCNc1cnc(-c2cc(-c3ccon3)n(Cc3ccccc3F)n2)nc1 [Compound 9],> 1000 nM
7,CCOC(=O)C(C)(C)c1nnc(-c2cc(-c3ccon3)n(Cc3ccccc3F)n2)nc1OC [Compound 61],> 1000 nM
8,CC(=O)c1cc(-c2ncc(F)c(N3CCCC3)n2)nn1Cc1ccccc1F [Compound 92],> 1000 nM
9,CCCS(=O)(=O)Nc1nc(-c2cc(C(C)=O)n(Cc3ccccc3F)n2)ncc1F [Compound 97],> 1000 nM
10,COc1nn(-c2nc(-c3cc(-c4ccon4)n(Cc4ccccc4F)n3)ncc2F)cc1CC(N)=O [Compound 57],> 30000 nM
11,Nc1nc(-c2cc(-c3ccon3)n(Cc3ccccc3F)n2)nc(N)c1NS(=O)(=O)CCC(F)(F)F [Compound 19],> 1000 nM
12,CC(=O)c1cc(-c2ncc(F)c(NCCS(N)(=O)=O)n2)nn1Cc1ccccc1F [Compound 76],100 to 1000 nM
13,CC(=O)c1cc(-c2ncc(F)c(N3CCN(S(C)(=O)=O)CC3)n2)nn1Cc1ccccc1F [Compound 120],> 30000 nM
14,"CC(=O)c1cc(-c2ncc(F)c(N[C@@H]3CCCC[C@H]3C(=O)O)n2)nn1Cc1ccccc1F [Compound 137, (1R,2R)-2-((2-(5-acetyl-1-(2-fluorobenzyl)-1H-pyrazol-3-yl)-5-fluoropyrimidin-4-yl)amino)cyclohex anecarboxylic acid]",100 to 1000 nM
15,CC(C(N)=O)C(=O)Nc1ccnc(-c2cc(-c3ccon3)n(Cc3ccccc3F)n2)n1 (stereo not drawn) [Compound 35],> 1000 nM
16,CC(=O)c1cc(-c2ncc(F)c(N)n2)nn1Cc1ccccc1F [Compound 84],> 1000 nM

# More lines, now with the values ahead:
row,EC50,SMILES
1,> 1000 nM,CC(=O)c1cc(-c2ncc(F)c(N3CCCS3(=O)=O)n2)nn1Cc1ccccc1F [Compound 119]
2,100 to 1000 nM,"CC(C)CC(C)(N)CNc1nc(-c2cc(-c3ccon3)n(Cc3ccccc3F)n2)ncc1F (stereo not drawn) [Compound 156, N1-(5-fluoro-2-(1-(2-fluorobenzyl)-5-(isoxazol-3-yl)-1H-pyrazol-3-yl)pyrimidin-4-yl)-2,4-dimethylpentane-1,2-diamine]"
3,> 1000 nM,CC(=O)c1cc(-c2ncc(F)c(N3CC(F)(F)C3)n2)nn1Cc1ccccc1F [Compound 114]
4,< 100 nM,"CCCC[C@H](CO)Nc1nc(-c2cc(-c3ccon3)n(Cc3ccccc3F)n2)ncc1F [Compound 151, (R)-2-((5-fluoro-2-(1-(2-fluorobenzyl)-5-(isoxazol-3-yl)-1H-pyrazol-3-yl)pyrimidin-4-yl)amino)hexan-1-ol]"
5,> 1000 nM,O=C(NNC(=O)C(F)(F)F)Nc1nc(-c2cc(-c3ccon3)n(Cc3ccccc3F)n2)ncc1F [Compound 13]
6,100 to 1000 nM,CC(=O)c1cc(-c2ncc(F)c(N3CCCC(F)(F)C3)n2)nn1Cc1ccccc1F [Compound 79]
7,< 100 nM,CC1(C#N)C(=O)Nc2nc(-c3cc(-c4ccon4)n(Cc4ccccc4F)n3)nc(N)c21 (stereo not drawn) [Compound 29]
8,> 1000 nM,CC(=O)c1cc(-c2ncc(F)c(N3CC(NC(=O)C4(O)CC4)C3)n2)nn1Cc1ccccc1F [Compound 122]
9,> 1000 nM,CC(=O)c1cc(-c2ncc(F)c(NCCO)n2)nn1Cc1ccccc1F [Compound 125]
10,< 100 nM,"CC(C)C[C@H](CO)Nc1nc(-c2cc(-c3ccon3)n(Cc3ccccc3F)n2)ncc1F [Compound 149, (R)-2-((5-fluoro-2-(1-(2-fluorobenzyl)-5-(isoxazol-3-yl)-1H-pyrazol-3-yl)pyrimidin-4-yl)amino)-4-m ethylpentan-1-ol]"
11,> 1000 nM,Oc1ccc(Cn2nc(-c3ncc(F)c(NCC(O)(C(F)(F)F)C(F)(F)F)n3)cc2-c2ccon2)c(F)c1 [Compound 184]
12,100 to 1000 nM,"O=C(CCNc1nc(-c2cc(-c3ccon3)n(Cc3ccccc3F)n2)ncc1F)OCCN1CCOCC1 [Compound 162, 2-morpholinoethyl 3-((5-fluoro-2-(1-(2-fluorobenzyl)-5-(isoxazol-3-yl)-1H-pyrazol-3-yl)pyrimidin-4-yl)amino)propanoate]"
13,100 to 1000 nM,"CCCC(C)(N)CNc1nc(-c2cc(-c3ccon3)n(Cc3ccccc3F)n2)ncc1F (stereo not drawn) [Compound 155, N1-(5-fluoro-2-(1-(2-fluorobenzyl)-5-(isoxazol-3-yl)-1H-pyrazol-3-yl)pyrimidin-4-yl)-2-methylpentane-1,2-diamine]"
14,100 to 1000 nM,CCOC(=O)[C@H](CN(C)c1nc(-c2cc(C(C)=O)n(Cc3ccccc3F)n2)ncc1F)C(C)C [Compound 74]
15,100 to 1000 nM,CC(=O)c1cc(-c2ncc(F)c(N3CCC(O)C(CO)C3)n2)nn1Cc1ccccc1F (stereo not drawn) [Compound 117]
16,> 1000 nM,CC(=O)c1cc(-c2ncc(F)c(N3CC(NC(=O)C(F)(F)F)C3)n2)nn1Cc1ccccc1F [Compound 121]
17,100 to 1000 nM,O=C(Cc1cc(=O)o[nH]1)Nc1ccnc(-c2cc(-c3ccon3)n(Cc3ccccc3F)n2)n1 [Compound 75]
18,100 to 1000 nM,CC(=O)c1cc(-c2ncc(F)c(NCc3cc(=O)[nH]o3)n2)nn1Cc1ccccc1F [Compound 70]
19,> 1000 nM,CCC(C)(NC(=O)OCc1ccccc1)C(=O)Nc1ccnc(-c2cc(-c3ccon3)n(Cc3ccccc3F)n2)n1 (stereo not drawn) [Compound 46]
20,< 100 nM,"CC(C)OC(=O)CCNc1nc(-c2cc(-c3ccon3)n(Cc3ccccc3F)n2)ncc1F [Compound 164, isopropyl 3-((5-fluoro-2-(1-(2-fluorobenzyl)-5-(isoxazol-3-yl)-1H-pyrazol-3-yl)pyrimidin-4-yl)amino)propanoate]"
21,> 1000 nM,"CC(=O)c1cc(-c2ncc(F)c(N[C@@H](CO)C(N)=O)n2)nn1Cc1ccccc1F [Compound 194, (S)-2-((2-(5-acetyl-1-(2-fluorobenzyl)-1H-pyrazol-3-yl)-5-fluoropyrimidin-4-yl)amino)-3-hydroxypropanamide]"
22,> 1000 nM,CC(=O)c1cc(-c2ncc(F)c(N3CCNC(=O)C3)n2)nn1Cc1ccccc1F [Compound 77]
23,100 to 1000 nM,"CC(C)C(C)(N)CNc1nc(-c2cc(-c3ccon3)n(Cc3ccccc3F)n2)ncc1F (stereo not drawn) [Compound 154, N1-(5-fluoro-2-(1-(2-fluorobenzyl)-5-(isoxazol-3-yl)-1H-pyrazol-3-yl)pyrimidin-4-yl)-2,3-dimethylbutane-1,2-diamine]"
